Test results from patent US20190374576A1, “VIRAL METHODS OF T CELL THERAPY” (Intima Bioscience, Inc., priority 2016, published 2019).

Columns and labels:
Test in all cases: Validation of gRNAs: Surveyor digest, gel electrophoresis, densitometry in HEK293T cells
Format in all cases: cell-based, human
[1] = system: CCR5; conditions: CCR5 target gene site, 3 days
Method: (§1) HEK293T cells were plated out at a density of 1×10^5 cells per well in a 24 well plate. 150 uL of Opti-MEM medium was combined with 1.5 ug of gRNA plasmid, 1.5 ug of Cas9 plasmid. Another 150 uL of Opti-MEM medium was combined with 5 ul of Lipofectamine 2000 Transfection reagent (Invitrogen). The solutions were combined together and incubated for 15 minutes at room temperature. The DNA-lipid complex was added dropwise to wells of the 24 well plates. Cells were incubated for 3 days at 37° C. and genomic DNA was collected using the GeneJET Genomic DNA Purification Kit (Thermo Scientific). Activity of the gRNAs was quantified by a Surveyor Digest, gel electrophoresis, and densitometry (FIG. 60 and FIG. 61) (Guschin, D. Y., et al., “A Rapid and General Assay for Monitoring Endogenous Gene Modification,” Methods in Molecular Biology, 649: 247-256 (2010)).

[2] = system: PD1; conditions: PD1 target gene site, 3 days
Method: HEK293T cells were plated out at a density of 1×10^5 cells per well in a 24 well plate. 150 uL of Opti-MEM medium was combined with 1.5 ug of gRNA plasmid, 1.5 ug of Cas9 plasmid. Another 150 uL of Opti-MEM medium was combined with 5 ul of Lipofectamine 2000 Transfection reagent (Invitrogen). The solutions were combined together and incubated for 15 minutes at room temperature. […] Cells were incubated for 3 days at 37° C. and genomic DNA was collected using the GeneJET Genomic DNA Purification Kit (Thermo Scientific). Activity of the gRNAs was quantified by a Surveyor Digest, gel electrophoresis, and densitometry (FIG. 60 and FIG. 61) (Guschin, D. Y., et al., “A Rapid and General Assay for Monitoring Endogenous Gene Modification,” Methods in Molecular Biology, 649: 247-256 (2010)).

[3] = system: CTLA4; conditions: CTLA4 target gene site, 3 days
Method: as §1

Molecule: CCR5 gRNA#2: sense primer SEQ ID 63 CACCGTCATCCTCCTGACAATCGAT
- efficiency of Cas9/gRNA pair in creating double strand break (DSB), percent of gene modifications [1]: >60%

Molecule: PD1 gRNA#2: sense primer SEQ ID 35 CACCGCCTGCTCGTGGTGACCGAAG
- efficiency of Cas9/gRNA pair in creating double strand break (DSB), percent of gene modifications [2]: >60%

B1: CTLA4 gRNA#3: sense primer (SEQ ID printed 'Si') … (nucleic acid)
guide: GCTAGATGATTCCATCTGCACGUUUUAGAGCUAGAAAUAGCAAGUUAAAAUAAGGCUAGUCCGUUAUCAACUUGAAAAAGUGGCACCGAGUCGGUGCUUUU
modifications: 2'-O-methyl 3'-phosphorothioate modifications added, positions not given here
- efficiency of Cas9/gRNA pair in creating double strand break (DSB), percent of gene modifications [3]: 39.33%
